Assay [1] deals with T1, Recombinant human IKKβ (IKK2) (Homo sapiens, UniProt O14920).
T1 construct: Recombinant human IKKβ (residues 5-756); GST (C); made in house
T1 sequence (O14920 5-756): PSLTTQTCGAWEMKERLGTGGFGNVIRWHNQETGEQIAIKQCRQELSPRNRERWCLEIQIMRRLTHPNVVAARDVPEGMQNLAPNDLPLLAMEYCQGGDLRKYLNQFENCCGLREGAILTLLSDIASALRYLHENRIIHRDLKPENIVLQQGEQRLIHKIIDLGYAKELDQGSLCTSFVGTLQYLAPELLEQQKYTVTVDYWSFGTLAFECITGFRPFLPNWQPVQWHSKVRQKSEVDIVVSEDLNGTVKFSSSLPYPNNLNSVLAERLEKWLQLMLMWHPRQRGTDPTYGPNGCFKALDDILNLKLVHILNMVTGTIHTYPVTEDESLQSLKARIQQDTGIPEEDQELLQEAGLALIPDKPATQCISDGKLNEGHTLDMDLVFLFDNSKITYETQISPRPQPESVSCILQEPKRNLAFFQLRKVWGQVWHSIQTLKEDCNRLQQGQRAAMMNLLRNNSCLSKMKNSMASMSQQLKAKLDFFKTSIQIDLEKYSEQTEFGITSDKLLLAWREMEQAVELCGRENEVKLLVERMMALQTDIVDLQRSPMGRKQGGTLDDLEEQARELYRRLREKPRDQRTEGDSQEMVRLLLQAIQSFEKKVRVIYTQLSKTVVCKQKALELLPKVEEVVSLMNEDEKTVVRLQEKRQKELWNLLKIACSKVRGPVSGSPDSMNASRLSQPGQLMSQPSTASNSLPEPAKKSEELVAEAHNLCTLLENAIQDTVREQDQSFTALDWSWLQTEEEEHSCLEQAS
The assay is described as follows: IKK2 assay (TR-FRET). It counts as biochemical. As to conditions: read-out: pIC50 potency against IKK2 (converted). As to the method:
Recombinant human IKKβ (residues 5-756) was expressed in baculovirus as a C-terminal GST-tagged fusion protein, and its activity was assessed using a time-resolved fluorescence resonance energy transfer (TR-FRET) assay. Briefly, IKKβ (0.5-4 nM final concentration) diluted in assay buffer (50 mM HEPES, 10 mM MgCl2, 1 mM CHAPS pH 7.4 with 1 mM DTT and 0.01% w/v BSA) was added to wells containing various concentrations of compound or DMSO vehicle (1.7% v/v final). The reaction was initiated by the addition of GST-IkappaBalpha substrate (25 nM final)/ATP (1 μM final), in a total volume of 6 μl. The reaction was incubated for 15 mins at room temperature, then terminated by the addition of 3 μl of 50 mM EDTA in buffer (100 mM HEPES pH 7.4, 150 mM NaCl and 0.1% w/v BSA) containing antiphosphoserine-IkappaBalpha-32/36 monoclonal antibody clone 12C2 (Cell Signalling Technology, Beverly Mass., USA) labelled with W-1024 europium chelate (Wallac O Y, Turku, Finland), and an APC-labelled anti-GST antibody (Prozyme, San Leandro, Calif., USA). The reaction was further incubated for 60 mins at room temperature and the degree of phosphorylation of GST-IkappaBalpha measured using a Rubystar plate reader (BMG Instruments, Aylesbury, UK) as a ratio of specific 665 nm energy transfer signal to reference europium 620 nm signal.

For another assay, the target named is T2, Recombinant human IKK1 (Homo sapiens, UniProt O15111).
T2 construct: Recombinant human IKK1 (residues 1-785); 6HIS (C); made in house
T2 sequence (O15111 1-745): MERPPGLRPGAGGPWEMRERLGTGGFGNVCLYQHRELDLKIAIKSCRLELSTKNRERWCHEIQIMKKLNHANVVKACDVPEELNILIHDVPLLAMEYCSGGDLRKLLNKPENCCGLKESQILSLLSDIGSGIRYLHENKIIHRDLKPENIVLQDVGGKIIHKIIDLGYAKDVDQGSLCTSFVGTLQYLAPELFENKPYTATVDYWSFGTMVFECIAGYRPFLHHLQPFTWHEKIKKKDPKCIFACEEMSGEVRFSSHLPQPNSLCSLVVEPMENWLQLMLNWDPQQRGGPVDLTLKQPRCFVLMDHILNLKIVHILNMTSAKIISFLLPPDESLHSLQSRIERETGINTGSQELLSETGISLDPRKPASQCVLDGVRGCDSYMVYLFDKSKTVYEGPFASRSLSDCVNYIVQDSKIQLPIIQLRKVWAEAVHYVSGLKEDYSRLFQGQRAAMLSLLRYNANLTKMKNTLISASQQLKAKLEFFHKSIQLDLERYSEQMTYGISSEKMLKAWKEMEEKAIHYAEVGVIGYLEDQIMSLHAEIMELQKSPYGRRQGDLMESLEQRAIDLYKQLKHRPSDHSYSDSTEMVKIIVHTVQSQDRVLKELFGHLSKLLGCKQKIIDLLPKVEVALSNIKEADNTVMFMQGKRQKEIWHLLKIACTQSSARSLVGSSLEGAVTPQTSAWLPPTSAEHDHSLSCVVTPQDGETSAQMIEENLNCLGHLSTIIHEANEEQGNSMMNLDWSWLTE
The assay is described as follows: IKK1 time-resolved fluorescence resonance energy transfer assay. It counts as biochemical. As to conditions: IKK2 assay and IKK2 time dependent assay versus IKK1 TR-FRET assay. As to the method: Recombinant human IKK1 (residues 1-785) was expressed in baculovirus as a C-terminal 6HIS-tagged fusion protein, and its activity was assessed using a time-resolved fluorescence resonance energy transfer (TR-FRET) assay. Briefly, IKK1 (typically 5-10 nM final) diluted in assay buffer (50 mM HEPES, 10 mM MgCl2, 1 mM CHAPS pH 7.4 with 1 mM DTT and 0.01% w/v BSA) was added to wells containing various concentrations of compound or DMSO vehicle (1.7% v/v final). The reaction was initiated by the addition of GST-IκBα substrate (25 nM final)/ATP (1 μM final), in a total volume of 6 μl. The reaction was incubated for 15 minutes at room temperature, then terminated by the addition of stop reagent (3 μl) containing 50 mM EDTA and detection reagents in buffer (100 mM HEPES pH 7.4, 150 mM NaCl and 0.01% w/v BSA). […] The degree of phosphorylation of GST-IκBα was measured using a suitable time-resolved fluorimeter such as Packard Discovery (Perkin-Elmer Life Sciences, Pangbourne, Berkshire, UK), Wallac Viewlux (Perkin-Elmer Life Sciences, Pangbourne, Berkshire, UK), Envision (Perkin-Elmer Life Sciences, Pangbourne, Berkshire, UK), or Rubystar (BMG, Aylesbury, Buckinghamshire, UK) as a ratio of specific 665 nm energy transfer signal to reference europium 620 nm signal.

The values below come from patent US8354539B2, “Indole derivatives as IKK2 inhibitors” (Glaxo Group Limited, priority 2009, dated 2013).

For the compound `COCCS(=O)(=O)N1CCC(c2c[nH]c3c(C(N)=O)cc(-c4ccc5c(c4)CN(C(C)C)C5)cc23)CC1` [Compound of formula (I), 5-[2-(1-methylethyl)-2,3-dihydro-1H-isoindol-5-yl]-3-(1-{[2-(methyloxy)ethyl]sulfonyl}-4-piperidinyl)-1H-indole-7-carboxamide], the IC50 in assay [1] is less than 100 nM. In addition, on Recombinant human IKK1, the “potency at IKK2 relative to IKK1” value was “inhibited IKK2 with greater potency than IKK1”.
